Laboratory results from PMC11052071, “Novel JAK Inhibitors to Reduce Graft-Versus-Host Disease after Allogeneic Hematopoietic Cell Transplantation in a Preclinical Mouse Model” (Molecules, 2024).
Where two headings read alike, the source gives them in different places.

Key:
[1] = system: GvHD; assay: Preclinical mouse model of allo-HCT (GvHD); type: in vivo, Balb/c recipient mice
Description: To determine the potential of WU4 and WU8 in preventing GvHD, we performed allo-HCT in which 5 × 10^6 T cell-depleted bone marrow (TCD-BM; CD45.1+) and 5 × 10^5 splenic pan T cells (CD45.2+) obtained from B6 mice were transplanted into lethally irradiated (900 cGy on day −1) Balb/c allogeneic recipient mice on day 0. […]. […] Among monocyte subsets, we only considered classical (LyG6^−CD11b^+Ly6C^high) and intermediate monocytes (LyG6^−CD11b^+Ly6C^middle) as APCs, excluding non-classical monocytes (LyG6^−CD11b^+Ly6C^low) due to their anti-inflammatory function, which downregulates antigen presentation during inflammation. […]
Figure 5 In vivo administration of WU4 and WU8 reduces GvHD by increasing % of Tregs while suppressing % of APCs and costimulatory proteins on APCs after allo-HCT. Allo-HCT was performed as follows: 5 × 10^6 TCD-BM (CD45.1+) and 5 × 10^5 splenic T cells (CD45.2+) obtained from B6 mice were transplanted on day 0 into lethally irradiated (900 cGy on day −1) Balb/c allogeneic recipient mice. TCD-BM-only group served as a no-GvHD control. […] (A,B) The mice were monitored for survival and GvHD signs. (C–F) Whole splenocytes were analyzed for % of Tregs, recipient/BM-derived APCs, and CD80-expressing APCs on day 6 after allo-HCT. LyG6^−CD11b^+Ly6C^high and LyG6^−CD11b^+Ly6C^middle served as classical and intermediate monocyte subsets. NT: neutrophils. * p < 0.05, ** p < 0.01, and *** p < 0.001. All error bars are represented as mean ± standard deviation.
Allo-HCT was performed as previously described. Briefly, BALB/c mice were used as recipients and received 9 Gy total body irradiation on day −1, then were transplanted with 5 × 10^6 T cell-depleted bone marrow (TCD-BM) cells from B6 (CD45.1+) mice along with 0.5 × 10^6 splenic T cells from B6 (CD45.2+) mice on day 0. Mouse TCD-BM and splenic T cells were prepared using an EasySep mouse CD90.2 positive selection kit II and an EasySep mouse T cell isolation kit ([…] Technologies, Cambridge, MA, USA), respectively.
GvHD clinical scores were assessed twice per week by a scoring system incorporating five clinical criteria: weight loss (diarrhea scored 1 regardless of weight change), posture (hunching), mobility, fur texture, and skin integrity, as previously described. Individual mice were scored from 0 to 2 for each criterion and were sacrificed with GvHD scores of 6 or above, following our approved animal protocol.
T cells from in vitro primary murine T cell culture, fresh peripheral blood, or whole splenocytes were analyzed according to cell surface and intracellular markers. Surface markers were directly stained with flow antibodies for 20 min at 4 °C. For intracellular staining (FOXP3 and T-bet), cells were fixed and permeabilized after surface staining using appropriate buffers (One-step intracellular nuclear protein staining protocol, eBioscience, San Diego, CA, USA) and stained with flow antibodies. The antibodies used for flow cytometric analyses for mouse cells were as follows: FOXP3, T-BET, and CD183 (eBioscience, San Diego, CA, USA); CD3, H2-Kb, H2-Kd, CD4, B220, CD11b, CD11c, Ly6C, and DEC205 (BioLegend, San Diego, CA); and CD8, CD45.2, CD80, and Ly6G (BD Pharmingen, San Jose, CA, USA). All cells were run on a ZE5 Cell Analyzer (BD Biosciences, Mountain View, CA, USA) or Attune® NxT (Thermofisher Scientific, Waltham, MA, USA) and analyzed with the FlowJo software, version 10.9.0 (FlowJo LLC., Ashland, OR, USA).

[2] = human; cited from earlier work
[3] = cited from earlier work; for terminal plasma half-life: human
[4] = target: TYK2 (Homo sapiens, UniProt P29597); assay: Z'-LYTE enzyme activity assay (SelectScreen Kinase Profiling), TYK2
[5] = system: PKN1; conditions: murine and human whole-kinome analyses; cited from earlier work
[6] = target: JAK2 (Homo sapiens, UniProt O60674); assay: Z'-LYTE enzyme activity assay (SelectScreen Kinase Profiling), JAK2
[7] = target: T1, JAK3 (Homo sapiens, UniProt P52333); assay: Z'-LYTE enzyme activity assay (SelectScreen Kinase Profiling), JAK3
T1 sequence (P52333 1-1124): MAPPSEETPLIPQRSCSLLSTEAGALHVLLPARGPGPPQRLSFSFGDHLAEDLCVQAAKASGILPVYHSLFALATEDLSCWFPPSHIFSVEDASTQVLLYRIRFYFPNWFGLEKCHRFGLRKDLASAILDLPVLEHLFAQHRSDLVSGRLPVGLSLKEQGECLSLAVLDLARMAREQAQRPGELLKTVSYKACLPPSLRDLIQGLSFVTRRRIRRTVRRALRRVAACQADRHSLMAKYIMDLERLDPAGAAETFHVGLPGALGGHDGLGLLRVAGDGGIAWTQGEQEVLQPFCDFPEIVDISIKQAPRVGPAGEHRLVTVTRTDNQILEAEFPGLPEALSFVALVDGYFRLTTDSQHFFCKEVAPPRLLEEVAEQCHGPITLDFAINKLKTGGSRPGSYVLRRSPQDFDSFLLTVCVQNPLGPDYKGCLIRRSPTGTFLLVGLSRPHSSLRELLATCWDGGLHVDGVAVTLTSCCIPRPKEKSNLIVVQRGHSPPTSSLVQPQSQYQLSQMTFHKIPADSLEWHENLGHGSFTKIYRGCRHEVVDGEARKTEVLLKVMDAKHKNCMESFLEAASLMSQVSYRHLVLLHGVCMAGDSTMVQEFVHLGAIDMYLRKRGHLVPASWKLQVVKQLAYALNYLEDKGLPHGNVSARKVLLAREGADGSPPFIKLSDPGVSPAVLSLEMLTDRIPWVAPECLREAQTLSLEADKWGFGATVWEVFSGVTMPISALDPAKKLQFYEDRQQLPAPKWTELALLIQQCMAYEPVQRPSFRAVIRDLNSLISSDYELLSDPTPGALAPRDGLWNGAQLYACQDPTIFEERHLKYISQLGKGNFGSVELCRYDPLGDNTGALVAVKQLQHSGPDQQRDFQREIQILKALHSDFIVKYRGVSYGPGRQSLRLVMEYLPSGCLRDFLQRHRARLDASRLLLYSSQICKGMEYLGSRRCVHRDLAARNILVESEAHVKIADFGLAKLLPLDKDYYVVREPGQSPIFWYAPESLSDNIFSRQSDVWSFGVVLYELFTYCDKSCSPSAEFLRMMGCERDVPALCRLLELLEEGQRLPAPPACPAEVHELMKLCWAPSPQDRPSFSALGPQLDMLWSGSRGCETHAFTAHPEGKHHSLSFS

[8] = target: JAK1 (Homo sapiens, UniProt P23458); assay: Z'-LYTE enzyme activity assay (SelectScreen Kinase Profiling), JAK1
[9] = Mouse PK after subcutaneous injection; type: in vivo; conditions: 2 mg/kg s.c., CD-1 mice, time points up to 6 h; WU derivatives compared to BARI
[10] = Human liver microsome (HLM) assay; type: in vitro ADME; conditions: incubations with human liver microsomes
Experimental: Subsequently, we assessed the in vitro metabolic stability and clearance values of WU derivatives in an HLM assay.
(A,B) Mouse PK following subcutaneous administration of WU derivatives (2 mg/kg) to CD-1 mice. […] All error bars are represented as mean ± standard deviation.
Mouse PK and in vitro human liver microsome (HLM) assay studies were conducted by Charles River Laboratories, Inc. (Wilmington, MA, USA). Briefly, male CD-1 mice were used in mouse PK studies. […] At 24 h, no drug levels were detected in plasma for any of the compounds tested. In addition, WU derivatives were evaluated in an in vitro HLM assay to determine the intrinsic human liver microsomal clearance values of compounds in incubations with human liver microsomes.

[11] = 4 mg/kg s.c. once daily for 3 weeks from day 3, vs vehicle control
[12] = 20 mg/kg s.c. once daily for 3 weeks from day 3, vs vehicle control
[13] = dose not given, vs vehicle control

Chain of TYK2 (P29597 whole entry): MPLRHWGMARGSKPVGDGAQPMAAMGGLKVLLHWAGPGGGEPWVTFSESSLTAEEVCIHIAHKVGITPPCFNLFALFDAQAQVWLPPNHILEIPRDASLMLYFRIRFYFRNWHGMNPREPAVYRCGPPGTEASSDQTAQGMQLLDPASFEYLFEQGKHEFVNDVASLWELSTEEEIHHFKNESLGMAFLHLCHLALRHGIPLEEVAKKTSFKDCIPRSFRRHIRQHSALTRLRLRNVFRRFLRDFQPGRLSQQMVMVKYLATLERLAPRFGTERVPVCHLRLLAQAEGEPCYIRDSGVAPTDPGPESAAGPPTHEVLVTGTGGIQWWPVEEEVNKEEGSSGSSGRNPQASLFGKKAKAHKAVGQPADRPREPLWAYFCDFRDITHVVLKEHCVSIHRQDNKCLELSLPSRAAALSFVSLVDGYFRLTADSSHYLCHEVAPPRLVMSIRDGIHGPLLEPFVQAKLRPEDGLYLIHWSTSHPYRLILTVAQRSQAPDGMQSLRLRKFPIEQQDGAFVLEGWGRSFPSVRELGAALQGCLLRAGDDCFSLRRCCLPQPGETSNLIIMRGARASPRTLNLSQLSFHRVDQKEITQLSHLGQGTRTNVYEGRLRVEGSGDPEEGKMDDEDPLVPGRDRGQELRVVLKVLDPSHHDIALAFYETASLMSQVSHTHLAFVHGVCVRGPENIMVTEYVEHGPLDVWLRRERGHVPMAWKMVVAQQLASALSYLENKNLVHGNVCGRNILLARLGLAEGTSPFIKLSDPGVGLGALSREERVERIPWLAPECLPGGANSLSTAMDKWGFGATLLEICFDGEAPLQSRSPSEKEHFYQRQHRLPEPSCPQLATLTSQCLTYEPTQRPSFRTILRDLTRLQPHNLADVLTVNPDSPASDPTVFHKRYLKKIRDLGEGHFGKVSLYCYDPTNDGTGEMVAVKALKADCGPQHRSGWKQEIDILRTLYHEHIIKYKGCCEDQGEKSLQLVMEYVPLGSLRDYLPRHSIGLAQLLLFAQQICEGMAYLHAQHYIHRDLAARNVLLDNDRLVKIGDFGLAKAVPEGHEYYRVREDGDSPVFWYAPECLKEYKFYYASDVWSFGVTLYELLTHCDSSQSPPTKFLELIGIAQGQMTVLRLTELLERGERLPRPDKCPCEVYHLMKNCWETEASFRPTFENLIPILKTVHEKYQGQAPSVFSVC
Chain of JAK2 (O60674 whole entry): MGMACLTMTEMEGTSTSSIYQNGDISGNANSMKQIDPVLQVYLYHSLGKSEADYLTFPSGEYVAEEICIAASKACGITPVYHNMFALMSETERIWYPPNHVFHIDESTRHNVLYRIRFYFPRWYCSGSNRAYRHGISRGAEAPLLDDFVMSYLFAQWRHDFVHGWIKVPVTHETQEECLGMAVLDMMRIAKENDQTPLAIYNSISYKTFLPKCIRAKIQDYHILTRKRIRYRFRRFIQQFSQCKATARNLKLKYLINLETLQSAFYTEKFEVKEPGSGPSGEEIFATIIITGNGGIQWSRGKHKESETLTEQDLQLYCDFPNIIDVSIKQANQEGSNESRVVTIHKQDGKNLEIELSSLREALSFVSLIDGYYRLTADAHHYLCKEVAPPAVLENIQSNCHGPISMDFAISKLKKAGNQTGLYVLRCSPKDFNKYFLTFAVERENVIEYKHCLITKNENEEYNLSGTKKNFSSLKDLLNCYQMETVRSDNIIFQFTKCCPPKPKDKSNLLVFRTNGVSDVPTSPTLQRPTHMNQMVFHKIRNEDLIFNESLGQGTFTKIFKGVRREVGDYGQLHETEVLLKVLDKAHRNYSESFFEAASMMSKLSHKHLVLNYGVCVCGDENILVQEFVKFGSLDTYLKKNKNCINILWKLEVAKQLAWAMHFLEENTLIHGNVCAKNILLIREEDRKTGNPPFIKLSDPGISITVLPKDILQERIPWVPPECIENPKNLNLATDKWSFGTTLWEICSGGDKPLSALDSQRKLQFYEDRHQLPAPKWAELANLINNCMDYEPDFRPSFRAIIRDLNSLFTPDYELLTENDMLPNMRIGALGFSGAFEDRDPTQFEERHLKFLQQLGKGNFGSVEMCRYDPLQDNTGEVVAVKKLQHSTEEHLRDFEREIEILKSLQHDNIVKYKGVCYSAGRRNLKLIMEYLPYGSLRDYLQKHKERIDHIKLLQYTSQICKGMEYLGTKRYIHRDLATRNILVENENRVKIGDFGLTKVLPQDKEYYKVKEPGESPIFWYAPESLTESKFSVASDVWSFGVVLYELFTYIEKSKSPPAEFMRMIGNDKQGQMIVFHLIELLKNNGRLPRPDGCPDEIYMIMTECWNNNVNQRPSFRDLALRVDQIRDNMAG
Chain of JAK1 (P23458 whole entry): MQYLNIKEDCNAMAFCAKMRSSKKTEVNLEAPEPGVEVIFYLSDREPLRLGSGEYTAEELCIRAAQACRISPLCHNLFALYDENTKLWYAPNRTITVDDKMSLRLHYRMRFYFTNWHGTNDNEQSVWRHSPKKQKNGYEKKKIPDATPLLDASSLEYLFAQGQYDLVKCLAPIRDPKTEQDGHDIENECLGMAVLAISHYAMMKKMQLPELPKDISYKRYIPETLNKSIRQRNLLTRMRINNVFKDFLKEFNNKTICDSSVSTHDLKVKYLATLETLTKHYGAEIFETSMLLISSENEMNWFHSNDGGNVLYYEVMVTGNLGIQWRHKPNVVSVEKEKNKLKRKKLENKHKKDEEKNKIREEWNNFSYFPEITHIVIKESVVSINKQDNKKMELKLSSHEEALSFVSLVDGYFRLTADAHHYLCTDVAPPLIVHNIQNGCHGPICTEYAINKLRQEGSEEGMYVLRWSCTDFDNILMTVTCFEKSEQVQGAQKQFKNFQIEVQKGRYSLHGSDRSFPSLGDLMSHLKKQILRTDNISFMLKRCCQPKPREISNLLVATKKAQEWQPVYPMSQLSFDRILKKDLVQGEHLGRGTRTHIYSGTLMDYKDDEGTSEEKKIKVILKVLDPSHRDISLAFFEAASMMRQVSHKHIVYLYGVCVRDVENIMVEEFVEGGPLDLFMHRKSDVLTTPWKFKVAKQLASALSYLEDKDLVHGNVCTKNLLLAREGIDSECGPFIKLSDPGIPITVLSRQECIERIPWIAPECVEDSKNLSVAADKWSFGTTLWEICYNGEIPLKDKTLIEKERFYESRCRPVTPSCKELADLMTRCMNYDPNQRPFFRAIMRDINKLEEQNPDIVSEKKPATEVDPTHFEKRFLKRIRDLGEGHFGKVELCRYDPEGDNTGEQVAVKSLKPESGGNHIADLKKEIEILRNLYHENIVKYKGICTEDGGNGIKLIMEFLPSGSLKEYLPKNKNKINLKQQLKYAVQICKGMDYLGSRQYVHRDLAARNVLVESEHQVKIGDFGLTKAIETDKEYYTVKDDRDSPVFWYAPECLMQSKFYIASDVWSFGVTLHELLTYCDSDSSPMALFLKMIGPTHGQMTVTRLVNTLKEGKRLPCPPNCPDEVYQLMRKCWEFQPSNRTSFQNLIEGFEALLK

SMILES	IC50 ([4]; IC50 TYK2, ATP at 1 mM) [nM]	IC50 ([4]; IC50 TYK2, ATP at app. Km) [nM]	IC50 ([6]; IC50 JAK2, ATP at app. Km) [nM]	IC50 ([7]; IC50 JAK3, ATP at app. Km) [nM]	IC50 ([6]; IC50 JAK2, ATP at 1 mM) [nM]	IC50 ([7]; IC50 JAK3, ATP at 1 mM) [nM]	further results
CCS(=O)(=O)N1CC(CC#N)(n2cc(-c3ncnc4[nH]ccc34)cn2)C1 [BARI, baricitinib, reference compound]	42.3	2.21					clinical GvHD scores [1, 11]: less clinical GvHD scores; overall survival [1, 11]: significantly improved survival rate; clinical GvHD scores [1, 12]: less clinical GvHD scores; overall survival [1, 12]: significantly improved survival rate; plasma protein binding [2]: 50%; terminal plasma half-life ([3]; in vivo): ~ 8.5 h; metabolism (extent) ([3]; in vivo): very little metabolism
N#CC[C@H](C1CCCC1)n1cc(-c2ncnc3[nH]ccc23)cn1 [RUX, Ruxolitinib]							plasma protein binding [2]: 97%; metabolism (extent) ([3]; RUX mostly in the liver via CYP(3A4)): > 99%; terminal plasma half-life ([3]; in vivo): ~ 2 h; inhibition of off target PKN1 [5]: not by RUX
CCS(=O)(=O)N1CC2(C1)CC(CC#N)(n1cc(-c3ncnc4[nH]ccc34)cn1)C2 [WU1]		29.4	8.22	60.8			
CCS(=O)(=O)N1CCC12CC(CC#N)(n1cc(-c3ncnc4[nH]ccc34)cn1)C2 (stereo not drawn) [WU2]		574	54.2	418			
CCS(=O)(=O)N1CC2(CCC2(CC#N)n2cc(-c3ncnc4[nH]ccc34)cn2)C1 (stereo not drawn) [WU3]		578	35.1	36.2			
CC(C)(C)NS(=O)(=O)NC1CC2(C1)CC(CC#N)(n1cc(-c3ncnc4[nH]ccc34)cn1)C2 (stereo not drawn) [WU5]	58.9	3.11	0.45	11.2	9.88	623	% of donor BM-derived B and T cells in the peripheral blood ([1]; dose not given, day 27 after allo-HCT, vs vehicle control): increased the % of donor BM-derived B and T cells; clinical GvHD scores [1, 13]: less clinical GvHD scores; overall survival [1, 13]: significantly improved overall survival; IC50 ([8]; IC50 JAK1, ATP at 1 mM): 8.2 nM; IC50 ([8]; IC50 JAK1, ATP at app. Km): 1.47 nM
CCS(=O)(=O)N1CCC2(CC1)CCC(CC#N)(n1cc(-c3ncnc4[nH]ccc34)cn1)CC2 [WU7]	275	12.1	0.867	12.3	13.8	423	plasma drug concentration (mouse PK) [9]: significant reduction in plasma concentration at 2 h after injection; in vitro metabolic stability in HLM [10]: diminished HLM metabolic stability
N#CCC1(n2cc(-c3ncnc4[nH]ccc34)cn2)CS(=O)(=O)C1 [WU9]	34.7	2.24	0.406	10.4	9.67	501	
CS(=O)(=O)C1CC(CC#N)(n2cc(-c3ncnc4[nH]ccc34)cn2)C1 (stereo not drawn) [WU10]	108	4.56	0.37	13	6.11	496	% of Tregs in the spleens ([1]; dose not given, day 6 after allo-HCT, vs vehicle control): significantly increased the % of Tregs; clinical GvHD scores [1, 13]: reduced GvHD; overall survival [1, 13]: trend towards increased overall survival; blood cell recovery (lymphocytes and white blood cells) ([1]; dose not given, whole blood, day 27 after allo-HCT): trend towards improvement in blood cell recovery
